Experimental findings from ChEMBL document CHEMBL1221403, “Topsentinols, 24-isopropyl steroids from the marine sponge Topsentia sp” (J Nat Prod, 2010) are described below.

One test has as its target Beta-secretase 1 (Homo sapiens, UniProt P56817). Description: Inhibition of BACE1-mediated cleavage of amyloid precursor protein after 16 hrs by spectrophotometry.
The nature of test [1]: Inhibition of chymotrypsin in absence of Triton X-100.
Test [2] is described as follows: Inhibition of chymotrypsin in presence of 0.01% Triton X-100.

Activity calls are given as the source filed them. No cut-off for these calls is given here.

Beta-secretase 1, sequence (P56817 whole entry): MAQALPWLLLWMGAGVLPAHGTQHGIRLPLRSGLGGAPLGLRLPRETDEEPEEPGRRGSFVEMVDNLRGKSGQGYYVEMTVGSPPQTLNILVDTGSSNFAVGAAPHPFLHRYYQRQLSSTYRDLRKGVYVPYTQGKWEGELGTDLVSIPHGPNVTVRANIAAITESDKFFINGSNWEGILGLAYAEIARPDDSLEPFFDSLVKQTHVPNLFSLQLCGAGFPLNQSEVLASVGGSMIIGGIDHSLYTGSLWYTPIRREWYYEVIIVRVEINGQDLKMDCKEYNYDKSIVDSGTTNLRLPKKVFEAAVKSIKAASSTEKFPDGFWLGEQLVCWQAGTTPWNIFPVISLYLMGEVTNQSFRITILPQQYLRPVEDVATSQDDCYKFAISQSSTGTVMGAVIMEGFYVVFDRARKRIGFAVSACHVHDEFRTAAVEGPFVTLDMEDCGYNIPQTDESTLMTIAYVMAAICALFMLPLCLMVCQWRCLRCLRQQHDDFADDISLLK

With `C=C(C)C(/C=C\[C@@H](C)[C@H]1CC[C@H]2[C@@H]3C[C@H](O)[C@H]4C[C@H](O)[C@@H](O)C[C@]4(C)[C@H]3CC[C@]12C)C(C)C` (stereo partly drawn), on Beta-secretase 1, the inhibition entry is “inactive”.
Same read-out and setting: in the case of `CC(C)C(/C=C/[C@@H](C)[C@H]1CC[C@H]2[C@@H]3CC=C4C[C@@H](O)CC[C@]4(C)[C@H]3CC[C@]12C)C(C)C` it was “inactive”; in that of `CC(C)C(/C=C/[C@@H](C)[C@H]1CC[C@H]2[C@@H]3C[C@H](O)[C@H]4C[C@H](O)[C@@H](O)C[C@]4(C)[C@H]3CC[C@]12C)C(C)C`, “inactive”.
The same measure, in the same setting: in the case of `CC(C)C(/C=C\[C@@H](C)[C@H]1CC[C@H]2[C@@H]3C[C@H](O)[C@H]4C[C@H](O)[C@@H](O)C[C@]4(C)[C@H]3CC[C@]12C)C(C)C` it was “inactive”.
`CC(C)C(/C=C\[C@@H](C)[C@H]1CC[C@H]2[C@@H]3C[C@H](OS(=O)(=O)O)[C@H]4C[C@H](OS(=O)(=O)O)[C@@H](OS(=O)(=O)O)C[C@]4(C)[C@H]3CC[C@]12C)C(C)C` [TOPSENTINOL K TRISULFATE]: the IC50 at Beta-secretase 1 is 1.2 µM; in test [1] it was 2.7 µM; in test [2], 34.6 µM. In addition, the inhibition result at Beta-secretase 1 is “Dose-dependent effect”.

What is called IC50 is the concentration that gives 50% inhibition.
